Results reported in ChEMBL document CHEMBL1201862, “PubChem BioAssay data set” (2004).
The source made the active and inactive calls. For most assays here, no stated cut-off is given here; in the data, actives have a measured EC50 and inactives only a lower limit.

Assays:
Cytochrome P450 3A4 = Cytochrome P450 3A4 (Homo sapiens, UniProt P08684);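 further: CYP3A4 tested as one member of a cytochrome P450 panel screen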
[1] = HEp-2 cell cytotoxicity, dose response, cytotoxicity control for RSV inhibitor project, HTS (AID 2410); assay type: functional; conditions: human respiratory syncytial virus
[2] = system: Streptococcus sp. 'group A'; assay: growth inhibition of control SK(-) GAS strain, dose response, counter-screen for streptokinase expression inhibitor project, luminescence, kanamycin, BacTiterGlo, confirmation (AID 1900); assay type: functional, organism-based
Streptokinase A = target: T1, Streptokinase A (Streptococcus pyogenes serotype M1, UniProt P10520); assay: S. pyogenes streptokinase expression inhibitors, potency, dose response, plasminogen activation absorbance, OD405 (AID 1914); assay type: functional, Streptococcus pyogenes M1 GAS;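 further: secreted streptokinase activity via plasminogen activation per viability signal from cell pellet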
T1 sequence (P10520 whole entry): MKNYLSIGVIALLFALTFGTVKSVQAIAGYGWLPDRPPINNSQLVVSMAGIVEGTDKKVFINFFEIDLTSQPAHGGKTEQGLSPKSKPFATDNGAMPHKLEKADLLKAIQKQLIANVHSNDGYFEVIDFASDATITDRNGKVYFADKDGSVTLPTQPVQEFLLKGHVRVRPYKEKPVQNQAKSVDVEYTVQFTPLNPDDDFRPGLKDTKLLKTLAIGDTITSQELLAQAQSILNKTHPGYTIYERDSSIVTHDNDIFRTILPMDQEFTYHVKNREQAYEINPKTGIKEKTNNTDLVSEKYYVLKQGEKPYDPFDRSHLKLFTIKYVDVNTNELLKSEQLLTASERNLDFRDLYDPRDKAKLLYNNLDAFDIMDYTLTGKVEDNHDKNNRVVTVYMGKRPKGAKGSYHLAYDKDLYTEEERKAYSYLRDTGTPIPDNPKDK

Streptococcus = assay: Group A Streptococcus viability loss, dose response, counter-screen for streptokinase expression inhibitor project, luminescence, BacTiterGlo (AID 1915); assay type: functional, organism-based;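 further: potency for reduction of bacterial viability or growth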
[3] = inhibitors of intracellular T. cruzi replication, confirmation, NIH3T3 host cells, beta-gal luminescence (AID 2044); assay type: functional, cell-based;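 further: intracellular parasites grown in NIH/3T3 mouse fibroblasts as host cells; luminescent beta-galactosidase reporter signal from transgenic T. cruzi replicating inside host cells; inhibitors lower the luminescence signal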
[4] = cytotoxicity toward NIH3T3 fibroblasts, dose response, counter-screen, cell-based, ATP luminescence, mouse fibroblasts (AID 2010); assay type: functional;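 further: cells exposed to compound for about 90 hours before reading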
[5] = target: T2, Heat shock factor protein 1 (Mus musculus, UniProt P38532); assay: inhibition of MG132-induced HSE-luciferase signal, confirmation, cell-based, NIH3T3, luminescence, dose retest (AID 2382); assay type: functional;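 further: NIH3T3 fibroblasts with HSF1-driven luciferase reporter stressed by proteasome inhibitor MG132; luminescence from HSF1-driven luciferase expression after 8 hours of MG132 stress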
T2 sequence (P38532 whole entry): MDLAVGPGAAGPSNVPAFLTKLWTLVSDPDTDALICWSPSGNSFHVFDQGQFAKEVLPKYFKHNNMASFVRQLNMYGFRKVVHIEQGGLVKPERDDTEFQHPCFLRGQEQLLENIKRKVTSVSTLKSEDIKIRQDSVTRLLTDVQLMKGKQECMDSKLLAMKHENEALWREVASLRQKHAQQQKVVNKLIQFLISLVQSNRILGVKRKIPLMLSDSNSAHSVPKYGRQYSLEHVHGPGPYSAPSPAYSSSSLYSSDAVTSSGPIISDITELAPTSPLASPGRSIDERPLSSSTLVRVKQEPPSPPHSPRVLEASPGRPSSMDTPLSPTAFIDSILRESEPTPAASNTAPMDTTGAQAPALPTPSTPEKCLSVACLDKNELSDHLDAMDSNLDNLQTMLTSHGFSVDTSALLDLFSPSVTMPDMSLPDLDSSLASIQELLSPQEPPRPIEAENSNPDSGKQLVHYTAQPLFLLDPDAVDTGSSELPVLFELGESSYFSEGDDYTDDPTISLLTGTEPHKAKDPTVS

INS1 = assay: beta cell apoptosis inhibitors, cytokine rescue, dose response, luminescence, retest (AID 449756); assay type: functional, cell-based; conditions: Rattus norvegicus;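 further: cell death triggered by IL-1 beta plus TNF-alpha plus IFN-gamma mixture; protective hits raise ATP signal compared with cytokine alone wells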

Sequence of Cytochrome P450 3A4 (P08684 whole entry): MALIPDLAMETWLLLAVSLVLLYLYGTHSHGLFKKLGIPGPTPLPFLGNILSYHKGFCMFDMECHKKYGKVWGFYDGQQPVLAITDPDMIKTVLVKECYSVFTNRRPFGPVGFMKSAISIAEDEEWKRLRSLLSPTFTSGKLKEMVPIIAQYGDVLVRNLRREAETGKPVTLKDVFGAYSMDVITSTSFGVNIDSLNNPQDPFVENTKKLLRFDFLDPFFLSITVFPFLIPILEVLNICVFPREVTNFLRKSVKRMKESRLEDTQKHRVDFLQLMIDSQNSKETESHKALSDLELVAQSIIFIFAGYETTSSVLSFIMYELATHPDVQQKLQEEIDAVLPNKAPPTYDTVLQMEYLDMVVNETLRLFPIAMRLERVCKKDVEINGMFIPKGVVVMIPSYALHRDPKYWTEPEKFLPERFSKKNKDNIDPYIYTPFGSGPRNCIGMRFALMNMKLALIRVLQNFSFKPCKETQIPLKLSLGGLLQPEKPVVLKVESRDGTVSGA

With `CN(C)c1ccc(-c2nc(N3CCNCC3)c3ccccc3n2)cc1` as the molecule, how does the AC50 (Cytochrome P450 3A4) read?
Its AC50 is 31.6 µM (inconclusive).

For `C/C(=N\NC(=O)C1CC1)c1ccc(C(C)(C)C)cc1`, which CC50 [1] is on record?
The CC50 was 34.3 µM (active).

For `O=C(c1cnccn1)N1CCC[C@@]2(CCN(c3ncccn3)C2)C1`, which AC50 (Cytochrome P450 3A4) is on record?
The AC50 was 15.8 µM (inconclusive).

For `Cn1c(=O)c2nc(CCCc3ccc([N+](=O)[O-])cc3)[nH]c2n(C)c1=O`, which AC50 (Cytochrome P450 3A4) is on record?
The AC50 was 3.98 µM (inconclusive).

For `O=C(c1cc2ccccc2o1)N(Cc1nnc(-c2ccccc2Cl)o1)C1CC1`, which CC50 [1] is on record?
The CC50 was 25.9 µM (active).

Which EC50 [2] does the source give for `O=C(c1cc(-c2ccc(Br)cc2)nc2ccccc12)N1CCN(c2ccccc2O)CC1` here?
Its EC50 is 7.53 µM (active).

What about the EC50 (Streptokinase A) of the same molecule?
The EC50 was 29.2 µM (active).

What about the EC50 (Streptococcus) of the same molecule?
Its EC50 is 25.4 µM (inconclusive).

With `COc1cc2c(-c3ccccc3)c(C)oc2cc1/C=N/NC(N)=S` as the molecule, how does the EC50 [3] read?
Its EC50 is 0.102 µM (active).

What about the EC50 [4] of the same molecule?
Its EC50 is > 60 µM (not active).

Which EC50 [5] does the source give for `Oc1nc2ccccc2n2cnnc12` here?
Its EC50 is > 195 µM (not active).

For `CC1(C(=O)OCC(=O)Nc2nc(-c3ccc(F)c(F)c3)cs2)CC1(Cl)Cl` (stereo not drawn), which EC50 [2] is on record?
Its EC50 is 8.61 µM (active).

And the EC50 (Streptokinase A)?
The EC50 was 7.2 µM (active).

What about the EC50 (Streptococcus) of the same molecule?
Its EC50 is 11.8 µM (active).

For `CC(C)CN(C(=O)COC(=O)c1ccc([N+](=O)[O-])s1)c1c(N)n(Cc2ccccc2)c(=O)[nH]c1=O`, which EC50 [3] is on record?
Its EC50 is 1.06 µM (active).

What about the EC50 [4] of the same molecule?
The EC50 was 4.8 µM (active).

With `O=C(c1ccco1)N(Cc1cc2ccccc2nc1O)C1CCCCC1` as the molecule, how does the EC50 [5] read?
The EC50 was > 195 µM (not active).

What does the source list for `O=C(CN(C(=O)Cn1nnc(-c2ccccc2F)n1)c1cccc2c1CCCC2)NCc1ccccc1`?
EC50 [2]: 11.2 µM (active); EC50 (Streptokinase A): > 150 µM (not active); EC50 (Streptococcus): > 150 µM (not active)

With `COc1ccc(C(=O)N(C)c2ccccc2C(=O)NCCc2ccccc2)cc1` as the molecule, how does the AC50 (INS1) read?
Its AC50 is 4.32 µM (active).

Which AC50 (Cytochrome P450 3A4) does the source give for `COCC(=O)N1CCC[C@@]2(CCN(Cc3ccccc3)C2)C1` here?
Its AC50 is 25.1 µM (inconclusive).

For `Cc1ccc([C@@H](O)c2cnc(C)n2Cc2ccccc2)cc1`, which AC50 (Cytochrome P450 3A4) is on record?
The AC50 was 5.01 µM (inconclusive).

With `C[C@@H](c1ccccc1)N1C(=O)[C@H]2[C@H]3[C@H](O)[C@H](O)C/C(=N/OCc4ccccc4)[C@H]3CC[C@@H]2C1=O` as the molecule, how does the AC50 (Cytochrome P450 3A4) read?
The AC50 was 3.16 µM (inconclusive).

With `CC1CC(c2ccccc2)n2nc(NC(=O)c3cccs3)nc2N1` (stereo not drawn) as the molecule, how does the EC50 [5] read?
The EC50 was > 195 µM (not active).

For `NC=C1C(=O)N(c2ccccc2)C(=O)N(c2ccccc2)C1=O`, which EC50 [5] is on record?
Its EC50 is > 195 µM (not active).

For `CCCCc1ccc(NC(S)=NCc2cccs2)cc1`, which EC50 [3] is on record?
Its EC50 is 2.6 µM (active).

What about the EC50 [4] of the same molecule?
Its EC50 is > 60 µM (not active).

Which EC50 [5] does the source give for `CCC(C)C(NC(=O)C1CCC(=O)N1C(=O)OCc1ccccc1)C(=O)NC(C(=O)N1CCCC1C(N)=O)C(C)CC` (stereo not drawn) here?
Its EC50 is > 195 µM (not active).

With `CCc1nc(SCC(=O)NCCc2ccc(OC)c(OC)c2)c2c(=O)n(C)c(=O)n(C)c2n1` as the molecule, how does the EC50 [5] read?
Its EC50 is > 195 µM (not active).

Which EC50 [3] does the source give for `CCNC(=O)NC(=O)c1csc([N+](=O)[O-])c1` here?
Its EC50 is 0.415 µM (active).

What about the EC50 [4] of the same molecule?
Its EC50 is > 30 µM (not active).

Which AC50 (INS1) does the source give for `N=C(NOC(=O)c1cccc(Cn2cc(C(F)(F)F)ccc2=O)c1)c1ccc(Cl)cc1` here?
The AC50 was 12.4 µM (active).

Which results are given for `CCN(CC)CCOCCOc1cc(C)c(Cl)c(C)c1`?
EC50 [3]: 0.408 µM (active); EC50 [4]: 9.47 µM (active)

What does the source list for `O=C(c1ccc(Cl)cc1Cl)C1(n2cncn2)Oc2ccccc2C1O` (stereo not drawn)?
EC50 [3]: 0.535 µM (active); EC50 [4]: 18 µM (active)

Which EC50 [2] does the source give for `Cc1ccc(C)c(CN2CCCN(Cc3cc(C)ccc3C)S2(=O)=O)c1` here?
Its EC50 is 19.8 µM (active).

What about the EC50 (Streptokinase A) of the same molecule?
The EC50 was 19.7 µM (active).

And the EC50 (Streptococcus)?
Its EC50 is > 150 µM (not active).

What does the source list for `COc1ccccc1OCC(=O)Nc1c2c(nn1-c1ccc(F)cc1)CS(=O)(=O)C2`?
EC50 [2]: > 150 µM (not active); EC50 (Streptokinase A): > 150 µM (not active); EC50 (Streptococcus): > 150 µM (not active)

For `NC(=O)COC(=O)c1ccccc1Oc1ccccc1`, which EC50 [5] is on record?
Its EC50 is > 195 µM (not active).

Which AC50 (INS1) does the source give for `O=c1[nH]c(NCCCO)nc2c1C1(CCCC1)Cc1ccccc1-2` here?
The AC50 was > 260 µM (inactive).

Which results are given for `CSc1nc(SCC(=O)NC(c2ccccc2)c2ccccc2)c2c3c(sc2n1)CN(C)CC3`?
EC50 [3]: 0.237 µM (active); EC50 [4]: > 60 µM (not active)

For `Cc1cc(C)n(C(=O)CNC(=O)Cc2ccccc2)n1`, which EC50 [5] is on record?
Its EC50 is > 195 µM (not active).
